From patent publication US10050214B2, “Near-ultraviolet stimulated light-emitting compound and production method for same” (NANO CMS CO., LTD., priority 2014, dated 2018)

Key:
Assay type in all cases: physicochemical
[1] = Residual fluorescent intensity after artificial light exposure (ASTM G 154-06 Cycle 1)
Description: The obtained quinazolinone compound was irradiated with near-UV light in the wavelength of 365 nm, and the intensity of discharged fluorescence was measured. The fluorescent intensity was measured using a fluorescence spectrometer (DARSA-5000, PSI Co., Ltd.), under the condition of 365 nm stimulation wavelength, cumulative average of five-time measurements, and 1024×128 CCD sensor shape. In addition, measurement of residual fluorescent intensity after artificial light exposure was repeated identically according to ASTM G 154-06 Cycle 1 standard.

[2] = Thermal stability (melting point measuring instrument); conditions: summary of TABLE 3
Description: (§1) Further, the melting point was measured using the melting point measuring instrument (M5000, KRÜSS GmbH), by assuming that the phase change is at the point where the change in transmissivity reaches 20%. Solubility in organic solvents was measured with respect to eight product items.

[3] = Weatherability test (QUV tester, ASTM G154-06 Cycle No. 1); conditions: in words
Description: (§2) In addition, compositions respectively containing 10% compounds of embodiments 6 and 11 were sealed on a non-florescent paper, using a grinder and an offset plate printing press (HFT-225, HONGFAT machinery manufacturing Co., Ltd.). Chemical resistance tests and solvent resistance tests were performed on the printed material for 30 minutes at 23° C. with respect to each of nine product items. Furthermore, grades with reference to the standard and remaining fluorescence intensities were measured by irradiating the near-ultraviolet light of 365 nm wavelength, using a weatherability tester (QUV, Q-LAB Corporation), according to ASTM G154-06 Cycle No. 1 standard (except for the condensation conditions).

[4] = Chemical resistance and solvent resistance tests on printed material; conditions: summary of TABLE 4; printed material with 10% compound
Description: as §2

[5] = Solubility in organic solvents (eight product items); conditions: for Solubility, 2% Sodium Hydroxide (Caustic Soda) Solution: 2% Sodium Hydroxide solution; for solubility in organic solvents (in words): summary of TABLE 3
Description: as §1

| Compound | The remaining fluorescence intensity (after artificial light exposure) Coating (10%) [1] | other results |
| --- | --- | --- |
| O=c1[nH]c(-c2cc(Cl)ccc2O)nc2ccccc12 [Embodiment 4, 2-(5-chloro-2-hydroxyphenyl)quinazoline-4(3H)-on] | 65% |  |
| O=c1[nH]c(-c2cc(Cl)ccc2O)nc2ccc(Cl)cc12 [Embodiment 5, 6-choloro-2-(5-chloro-2-hydroxyphenyl)quinazoline-4(3H)-on] | 80% |  |
| O=c1[nH]c(-c2cc(Cl)ccc2O)nc2cc(Cl)ccc12 [Embodiment 6, 7-chloro-2-(5-chloro-2-hydroxyphenyl)quinazoline-4(3H)-on] | 70% | thermal stability (in words) [2]: high; light fastness grade and remaining fluorescence intensity compared with conventional commercial products [3]: higher light fastness grade and remaining fluorescence intensity than those of conventional commercial products; solvent resistance (in words) [4]: high solvent resistance; Solubility, 2% Sodium Hydroxide (Caustic Soda) Solution [5]: Resolved; solubility in organic solvents (in words) [5]: low |
| COc1ccc(-c2nc3ccccc3c(=O)[nH]2)c(O)c1 [Embodiment 7, 2-(2-hydroxy-4-methoxyphenyl)quinazoline-4-(3H)-on] | 40% |  |
| COc1ccc(-c2nc3ccc(Cl)cc3c(=O)[nH]2)c(O)c1 [Embodiment 8, 6-chloro-2-(2-hydroxy-4-methoxyphenyl)quinazoline-4(3H)-on] | 45% |  |
| O=c1[nH]c(-c2ccc(Cl)cc2O)nc2ccccc12 [Embodiment 10, 2-(4-chloro-2-hydroxyphenyl)quinazoline-4(3H)-on] | 60% |  |
| O=c1[nH]c(-c2ccc(Cl)cc2O)nc2ccc(Cl)cc12 [Embodiment 11, 6-chloro-2-(4-chloro-2-hydroxyphenyl)quinazoline-4(3H)-on] | 70% | thermal stability (in words) [2]: high; light fastness grade and remaining fluorescence intensity compared with conventional commercial products [3]: higher light fastness grade and remaining fluorescence intensity than those of conventional commercial products; solvent resistance (in words) [4]: high solvent resistance; Solubility, 2% Sodium Hydroxide (Caustic Soda) Solution [5]: Resolved; solubility in organic solvents (in words) [5]: low |
| O=c1[nH]c(-c2ccc(Cl)cc2O)nc2cc(Cl)ccc12 [Embodiment 12, 7-chloro-2-(4-chloro-2-hydroxyphenyl)quinazoline-4(3H)-on] | 40% |  |
| O=c1[nH]c(-c2cc(F)ccc2O)nc2ccccc12 [Embodiment 13, 2-(5-fluoro-2-hyroxyphenyl)quinazoline-4(3H)-on] | 65% |  |
| O=c1[nH]c(-c2c(O)cccc2Cl)nc2ccccc12 [Embodiment 16, 2-(2-chloro-6-hyrdoxyphenyl)quinazoline-4(3H)-on] | 60% |  |
| O=c1[nH]c(-c2cccc(Cl)c2O)nc2ccccc12 [Embodiment 17, 2-(3-choloro-2-hydroxyphenyl)quinazoline-4(3H)-on] | 60% |  |
